{"source": "patent US7863337B2", "about": "“Use of triacontanol in preparation of medicaments for treatment of cancers” (priority 2006, dated 2011)", "key": {"intestinal cancer C26": {"system": "intestinal cancer C26", "test": "Curative effect test against murine intestinal cancer C26 (hypodermically inoculated) by gavaging a 352B oil agent", "assay_type": "in vivo, mice", "settings": "7 mg/kg/d", "procedure": "(§1) Experiment method: […] of the tumor models of murine hepatoma H22, intestinal cancer C26 and Lewis lung cancer by hypodermic inoculating in the murine in vivo\n(§2) A cancer cell suspension is prepared from the tumor source by homogenate technique, and then is inoculated subcutaneously under the armpit. After 24 hours, medication is administrated according to a predesigned scheme, and finally, an inhibition rate statistic against the tumor is obtained by comparing with a negative control group."}, "murine hepatoma H22 [1]": {"system": "murine hepatoma H22", "test": "Curative effect test against murine hepatoma H22 by gavaging a thixotropic oil suspension of triacontanol", "assay_type": "in vivo, mice", "procedure": "as §1, §2"}, "murine hepatoma H22 [2]": {"system": "murine hepatoma H22", "test": "Curative effect test against murine hepatoma H22 (inoculated under the armpit) by gavaging a triacontanol oil agent", "assay_type": "in vivo, mice", "procedure": "as §1, §2"}, "[3]": {"test": "Effect to the thymus index and spleen index of murine by gavaging a triacontanol oil agent", "assay_type": "in vivo", "settings": "tumor-bearing mice"}, "Lewis lung cancer": {"system": "Lewis lung cancer", "test": "Curative effect test against murine Lewis lung cancer (hypodermically inoculated) by intravenous administration of a triacontanol emulsion", "assay_type": "in vivo, mice", "settings": "7 mg/kg/d", "procedure": "as §1, §2"}, "[4]": {"settings": "ipx2, vs negative control group"}, "[5]": {"settings": "100 mg/kg (middle dosage), gavage"}, "[6]": {"settings": "150 mg/kg (high dosage), gavage"}}}
{"molecule": "N.N.[Cl][Pt][Cl]", "note": "[DDP]", "values": [{"measurement": "Weight of the animal (g) at last", "setting": "intestinal cancer C26; ipx2", "result": "19.1/24.1 g"}, {"measurement": "Weight of the tumor (g) X ± SD", "setting": "intestinal cancer C26; ipx2", "result": "0.346 ± 0.13", "unit": "g"}, {"measurement": "Inhibition rate (%)", "setting": "intestinal cancer C26; [4]", "result": 86.99, "unit": "%"}, {"measurement": "Weight of the animal (g) at last", "setting": "murine hepatoma H22 [1]; 7 mg/kg/d, igx2", "result": "21.4/25.4 g"}, {"measurement": "Weight of the tumor (g) X ± SD", "setting": "murine hepatoma H22 [1]; 7 mg/kg/d, igx2", "result": "1.269 ± 0.13", "unit": "g"}, {"measurement": "Inhibition rate (%)", "setting": "murine hepatoma H22 [1]; 7 mg/kg/d, igx2, vs negative control group", "result": 91.0, "unit": "%"}, {"measurement": "Weight of the tumor", "setting": "murine hepatoma H22 [2]; 0.001 mg/kg", "result": "0.31 ± 0.19", "unit": "g"}, {"measurement": "Inhibition rate (%)", "setting": "murine hepatoma H22 [2]; 0.001 mg/kg, compared with the NS control group", "result": 79.76, "unit": "%"}, {"measurement": "Spleen index (mg/10 g body weight)", "setting": "[3]; 0.001 mg/kg", "result": "46 ± 8.18", "unit": "mg/10 g body weight"}, {"measurement": "Thymus index (mg/10 g body weight)", "setting": "[3]; 0.001 mg/kg", "result": "30.7 ± 8.06", "unit": "mg/10 g body weight"}, {"measurement": "Weight of spleen", "setting": "[3]; 0.001 mg/kg", "result": "88.90 ± 27.79", "unit": "mg"}, {"measurement": "Weight of thymus", "setting": "[3]; 0.001 mg/kg", "result": "59.61 ± 22.45", "unit": "mg"}, {"measurement": "Weight of the animal (g) at last", "setting": "Lewis lung cancer; ipx2", "result": "19.2/20.9 g"}, {"measurement": "Weight of the tumor (g) X ± SD", "setting": "Lewis lung cancer; ipx2", "result": "0.278 ± 0.14", "unit": "g"}, {"measurement": "Inhibition rate (%)", "setting": "Lewis lung cancer; [4]", "result": 89.00, "unit": "%"}]}
{"molecule": "CCCCCCCCCCCCCCCCCCCCCCCCCCCCCCO", "note": "[352B, triacontanol]", "values": [{"measurement": "antitumor effect (summary in words)", "setting": "murine hepatoma H22 [1]; summary of the above tests (H22, Lewis lung cancer, C26)", "result": "prominent antitumor effect"}, {"measurement": "Weight (g) After administration", "setting": "murine hepatoma H22 [2]; 50 mg/kg (low dosage), gavage", "result": "23.51 ± 1.99", "unit": "g"}, {"measurement": "Weight of the tumor", "setting": "murine hepatoma H22 [2]; 50 mg/kg (low dosage), gavage", "result": "0.72 ± 0.38", "unit": "g"}, {"measurement": "Inhibition rate (%)", "setting": "murine hepatoma H22 [2]; 50 mg/kg (low dosage), gavage, compared with the menstruum control group", "result": 48.13, "unit": "%"}, {"measurement": "Weight (g) After administration", "setting": "murine hepatoma H22 [2]; [5]", "result": "23.20 ± 2.86", "unit": "g"}, {"measurement": "Weight of the tumor", "setting": "murine hepatoma H22 [2]; [5]", "result": "0.57 ± 0.28", "unit": "g"}, {"measurement": "Inhibition rate (%)", "setting": "murine hepatoma H22 [2]; 100 mg/kg (middle dosage), gavage, compared with the menstruum control group", "result": 58.95, "unit": "%"}, {"measurement": "Weight (g) After administration", "setting": "murine hepatoma H22 [2]; [6]", "result": "23.52 ± 2.36", "unit": "g"}, {"measurement": "Weight of the tumor", "setting": "murine hepatoma H22 [2]; [6]", "result": "0.49 ± 0.25", "unit": "g"}, {"measurement": "Inhibition rate (%)", "setting": "murine hepatoma H22 [2]; 150 mg/kg (high dosage), gavage, compared with the menstruum control group", "result": 64.59, "unit": "%"}, {"measurement": "Spleen index (mg/10 g body weight)", "setting": "[3]; 50 mg/kg (low dosage), gavage", "result": "67.1 ± 13.7", "unit": "mg/10 g body weight"}, {"measurement": "Thymus index (mg/10 g body weight)", "setting": "[3]; 50 mg/kg (low dosage), gavage", "result": "45 ± 6.72", "unit": "mg/10 g body weight"}, {"measurement": "Weight of spleen", "setting": "[3]; 50 mg/kg (low dosage), gavage", "result": "153.52 ± 35.62", "unit": "mg"}, {"measurement": "Weight of thymus", "setting": "[3]; 50 mg/kg (low dosage), gavage", "result": "102.14 ± 15.90", "unit": "mg"}, {"measurement": "Spleen index (mg/10 g body weight)", "setting": "[3]; [5]", "result": "62.1 ± 17.5", "unit": "mg/10 g body weight"}, {"measurement": "Thymus index (mg/10 g body weight)", "setting": "[3]; [5]", "result": "38.7 ± 8.08", "unit": "mg/10 g body weight"}, {"measurement": "Weight of spleen", "setting": "[3]; [5]", "result": "139.98 ± 41.62", "unit": "mg"}, {"measurement": "Weight of thymus", "setting": "[3]; [5]", "result": "86.87 ± 16.44", "unit": "mg"}, {"measurement": "Spleen index (mg/10 g body weight)", "setting": "[3]; [6]", "result": "65.7 ± 12.3", "unit": "mg/10 g body weight"}, {"measurement": "Thymus index (mg/10 g body weight)", "setting": "[3]; [6]", "result": "37.7 ± 6.73", "unit": "mg/10 g body weight"}, {"measurement": "Weight of spleen", "setting": "[3]; [6]", "result": "151.26 ± 32.16", "unit": "mg"}, {"measurement": "Weight of thymus", "setting": "[3]; [6]", "result": "86.86 ± 16.14", "unit": "mg"}, {"measurement": "effect to the important immune organ (thymus and spleen)", "setting": "[3]; summary in words", "result": "hasn't obvious effect to the important immune organ"}]}
